{"source": "patent US12370168B2", "about": "(scPharmaceuticals Inc., priority 2013, dated 2025)", "conditions": "8 mg/mL; for Osmolality / [Furosemide] / pH: three months", "key": {"[1]": {"conditions": "25 mM Tris, nominal pH 7.0, 70° C."}, "[2]": {"conditions": "25 mM Tris, nominal pH 7.4, 70° C."}, "[3]": {"conditions": "25 mM Tris, nominal pH 8.0, 70° C."}, "[4]": {"conditions": "50 mM Tris, nominal pH 7.0, 70° C."}, "[5]": {"conditions": "50 mM Tris, nominal pH 7.4, 70° C."}, "[6]": {"conditions": "50 mM Tris, nominal pH 8.0, 70° C."}, "[7]": {"conditions": "100 mM Tris, nominal pH 7.0, 70° C."}, "[8]": {"conditions": "100 mM Tris, nominal pH 7.4, 70° C."}, "[9]": {"conditions": "100 mM Tris, nominal pH 8.0, 70° C."}, "[10]": {"conditions": "25, 50, 100 mM Tris, pH 7.0, 7.4, 8.0, 70° C., 3 months"}}, "note": "Read-outs that look alike come from different tables or passages of the source.", "data": [{"molecule": "NS(=O)(=O)c1cc(C(=O)O)c(NCc2ccco2)cc1Cl", "note": "[Furosemide, 4-chloro-2-(furan-2-ylmethylamino)-5-sulfamoyl-benzoic acid]", "values": [{"measurement": "Osmolality", "setting": "[1]", "result": 308, "unit": "mOsm/kg H2O"}, {"measurement": "[Furosemide]", "setting": "[1]", "result": "<0.002", "unit": "mg/mL"}, {"measurement": "pH", "setting": "[1]", "result": 4.44}, {"measurement": "Osmolality", "setting": "[2]", "result": 299, "unit": "mOsm/kg H2O"}, {"measurement": "[Furosemide]", "setting": "[2]", "result": "<0.002", "unit": "mg/mL"}, {"measurement": "pH", "setting": "[2]", "result": 4.57}, {"measurement": "Osmolality", "setting": "[3]", "result": 297, "unit": "mOsm/kg H2O"}, {"measurement": "[Furosemide]", "setting": "[3]", "result": 1.16, "unit": "mg/mL"}, {"measurement": "pH", "setting": "[3]", "result": 5.26}, {"measurement": "Osmolality", "setting": "[4]", "result": 305, "unit": "mOsm/kg H2O"}, {"measurement": "[Furosemide]", "setting": "[4]", "result": "<0.002", "unit": "mg/mL"}, {"measurement": "pH", "setting": "[4]", "result": 4.50}, {"measurement": "Osmolality", "setting": "[5]", "result": 311, "unit": "mOsm/kg H2O"}, {"measurement": "[Furosemide]", "setting": "[5]", "result": "<0.002", "unit": "mg/mL"}, {"measurement": "pH", "setting": "[5]", "result": 4.73}, {"measurement": "Osmolality", "setting": "[6]", "result": 311, "unit": "mOsm/kg H2O"}, {"measurement": "[Furosemide]", "setting": "[6]", "result": 3.60, "unit": "mg/mL"}, {"measurement": "pH", "setting": "[6]", "result": 7.30}, {"measurement": "Osmolality", "setting": "[7]", "result": 306, "unit": "mOsm/kg H2O"}, {"measurement": "[Furosemide]", "setting": "[7]", "result": "<0.002", "unit": "mg/mL"}, {"measurement": "pH", "setting": "[7]", "result": 4.54}, {"measurement": "Osmolality", "setting": "[8]", "result": 312, "unit": "mOsm/kg H2O"}, {"measurement": "[Furosemide]", "setting": "[8]", "result": 0.58, "unit": "mg/mL"}, {"measurement": "pH", "setting": "[8]", "result": 5.68}, {"measurement": "Osmolality", "setting": "[9]", "result": 303, "unit": "mOsm/kg H2O"}, {"measurement": "[Furosemide]", "setting": "[9]", "result": 3.67, "unit": "mg/mL"}, {"measurement": "pH", "setting": "[9]", "result": 7.56}, {"measurement": "change in furosemide concentration", "setting": "[10]", "result": "decreased significantly"}, {"measurement": "change in osmolality", "setting": "[10]", "result": "slightly increased"}, {"measurement": "change in pH", "setting": "[10]", "result": "decreased significantly"}, {"measurement": "color of samples", "setting": "[10]", "result": "dark brown"}]}]}
